Where a name gives a salt, the structure may show the parent alone.
Assays:
[1] = system: FaDu human pharyngeal squamous cell carcinoma line; assay: In vivo antitumor activity in FaDu cancer-bearing nude mice; details: free bodies, 4 mg/kg, caudal vein, 3 times in 7-day intervals, FIG. 2
Protocol: (§1) FaDu (obtained from the American Type Culture Collection), which is a human pharyngeal squamous cell carcinoma line, was cultured and grown in a 10% bovine fetal serum-containing MEM culture. The cells were separated from the flask using 0.05% Trypsin-EDTA solution and collected. After washing with PBS, the cells were suspended in PBS so as to be 5×10^7 cells/mL and kept on ice. 0.1 mL of cell suspension liquid were subcutaneously injected in the right ventral portion of 6-week old nude mice (Charles River Laboratories Japan, Inc.). Each mouse was observed daily, and notes were made appropriately in cases where abnormal conditions were found. Calipers were used to measure the tumor size over time, and the tumor size was calculated based on the calculation formula: major axis×(minor axis squared)÷2. At the point when the tumor size was 100 to 200 mm^3, the mice were separated into groups such that the average values of the tumor sizes and the mouse body weights were uniform among the test groups (five mice per test group), and the drug was administered into the caudal vein (0.2 mL/20 g; 3 times in 7-day intervals).

[2] = system: ACHN human renal cancer cell line; assay: In vivo antitumor activity in ACHN cancer-bearing nude mice; details: free body, 2 mg/kg, 3 mg/kg and 4 mg/kg, 45 days after the start of sample administration, FIG. 3
Protocol: ACHN (obtained from the American Type Culture Collection), which is a human renal cancer cell line, was cultured and grown in a 10% bovine fetal serum-containing MEM culture. The cells were separated from the flask using 0.05% Trypsin-EDTA solution and collected. After washing with PBS, the cells were suspended in PBS so as to be 5×10^7 cells/mL and then kept on ice. 0.1 mL of cell suspension liquid were subcutaneously injected in the right ventral portion of 6-week old nude mice (Charles River Laboratories Japan, Inc.). Each mouse was observed daily, and notes made appropriately in cases where abnormal conditions were found. Calipers were used to measure the tumor size over time, and the tumor size was calculated based on the calculation formula: major axis×(minor axis squared)÷2. At the point when the tumor size was 150 to 200 mm^3, the mice were separated into groups such that the average values of the tumor sizes and the body weights of mice were uniform among the test groups (five mice per test group), and the drug was administered into the caudal vein (0.2 mL/20 g; 3 times in 7-day intervals).

[3] = Maximum tolerated dose in nude mice; details: mouse, in vivo, intravenous, free bodies
Protocol: as §1, with “At the point when the tumor size was 100 to 200 mm^3, the mice were separated into groups such that the average values of the tumor sizes and the mouse body weights were uniform among the test groups (five mice per test group), and the drug was administered into the caudal vein (0.2 mL/20 g; 3 times in 7-day intervals).” left out
ACHN (obtained from the American Type Culture Collection), which is a human renal cancer cell line, was cultured and grown in a 10% bovine fetal serum-containing MEM culture. […] Calipers were used to measure the tumor size over time, and the tumor size was calculated based on the calculation formula: major axis×(minor axis squared)÷2. […]

In the case of `C=C1C[C@@H]2CC[C@@]34C[C@H]5O[C@H]6[C@@H](O3)[C@H]3O[C@H](CC[C@@H]3O[C@H]6[C@H]5O4)CC(=O)C[C@@H]3[C@@H](OC)[C@@H](C[C@H](O)CN)O[C@H]3C[C@H]3O[C@@H](CC[C@@H]1O2)C[C@@H](C)C3=C` [Eribulin mesylate, eribulin mesylate], the “Tumor-reducing effect (average tumor volume)” value [1] was “a tumor-reducing effect was not obtained”, the “Tumor volume versus non-treated group” value [2] was “no significant difference was found” and the MTD [3] was 4 mg/kg.
